# Data reported in publication PMC7018972, “Novel and selective inactivators of Triosephosphate isomerase with anti-trematode activity” (Scientific Reports, 2020).
# Like-named read-outs stand apart in the source and are kept apart here.
# What was measured:
# [1] = test system: murine macrophages and bovine sperm; test: Non-specific toxicity against mammalian cells; assay type: cell-based; details: for Toxicity mammalian cells: selectivity index parasite vs. mammalian cells, fixed doses 25 and 100 µM
# Description: As a proof of concept, we tested the best FhTIM inactivators against F. hepatica and S. mansoni parasites. Also, we use compound 191 as a non-inhibitor which has a closely related structure to that of compound 187. Some compounds were able to kill 100% of the newly excysted juvenile (NEJ) F. hepatica within 4 to 48 h (Table 2 and Fig. 2). […] In parallel, these compounds were assayed to characterize their non-specific toxicity against murine macrophages and bovine sperm. Both models are recommended by FDA as an in vitro prediction of toxicology.
# J774.1 murine macrophage cells (ATCC, USA) were grown in DMEM culture milieu containing 4 mM glutamine and supplemented with 10% FCS[20]. The cells were seeded in a 96-well plate (5×10^4 cells in 200 µL culture medium) and incubated at 37 °C in a 5% CO2 atmosphere for 48 h, to allow cell adhesion prior to drug testing. Afterward, cells were exposed for 48 h to the compounds (25–400 µM) or the vehicle for control (0.4% DMSO), and additional controls (cells in medium) were used in each test. Cell viability was then assessed by measuring the mitochondria-dependent reduction of MTT (3-(4,5-dimethylthiazol-2-yl)-2,5-diphenyltetrazolium bromide) to formazan. For this purpose, MTT in sterile PBS (0.2% glucose), pH 7.4, was added to the macrophages to achieve a final concentration of 0.1 mg/mL, and the cells were incubated at 37 °C for 3 h. After removing the medium, formazan crystals were dissolved in 180 µL of DMSO and 20 µL of MTT buffer (0.1 M glycine, 0.1 M NaCl, 0.5 mM EDTA, pH 10.5), and the absorbance at 560 nm was measured. The IC50 was defined as the drug concentration at which 50% of the cells were viable, relative to the control (no drug added), and was determined by analysis using OriginLab8.5® sigmoidal regression (% of viable cells vs. the logarithm of the compound concentration). Tests were performed in triplicate.
# Semen samples were obtained from a healthy fertile Hereford bull and kept frozen in 0.5 mL straws (extended in Andromed, Minitube, Germany[47]) under liquid nitrogen until use. The semen used belonged to a single freezing batch that was obtained during a regular collection schedule with an artificial vagina. Samples from three straws were thawed and a sperm pool was prepared in PBS at a concentration of 40 million spermatozoa per mL, then 50 μL of this sperm suspension was carefully mixed with 50 μL of compounds diluted to 100, 50, 25, 12.5 and 6.25 μM or with 1% DMSO in control experiments. Each condition was assayed by duplicate in 96-well plates and controls were assayed by triplicate. Plates were incubated at 37 °C for 1 h with moderate shaking. The motility analysis was carried out using a CASA (Computer Assisted Semen Analyzer) system Androvision (Minitube, Tiefenbach, Germany) with an Olympus BX 41 microscope (Olympus, Japan) equipped with a warm-stage at 37 °C. Each sample (10 μL) was placed onto a Makler Counting Chamber (depth 10 μm, Sefi-Medical Instruments, Israel) and the following parameters were evaluated: percentage of total motile spermatozoa (motility >5 μm/s) and velocity curved line (VCL, >24 μm/s). At least 400 spermatozoa were analyzed from each sample from at least four microscope fields.
# [2] = biological target: Fasciola hepatica TIM (FhTIM) (Fasciola hepatica, UniProt S4UI50); test: Inhibition of recombinant FhTIM, coupled enzyme assay; assay type: biochemical
# Procedure, shortened: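 E. coli-expressed FhTIM preincubated with compound 1 h at 37 °C in 100 mM triethanolamine, 10 mM EDTA, pH 7.4, 10% DMSO. Aliquot diluted into coupled assay (1 mM glyceraldehyde-3-phosphate, 0.2 mM NADH, α-glycerol phosphate dehydrogenase, pH 7.4) with NADH decrease at 340 nm, 38 °C. Triplicate, two independent experiments.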
# [3] = test system: F. hepatica infected mice; test: Mouse infection with F. hepatica; assay type: in vivo, BALB/c mice; details: for protection of mice from F. hepatica infection (clinical signs, Clinic Score): one dose 100 mg/kg orogastric, 1 week post-infection, read at 3 wpi; for transaminase profile at the end of the experiment: one dose 100 mg/kg, infected mice
# Description: Six- to eight-week-old female BALB/c mice were obtained from DILAVE Laboratories[57] (Uruguay). Animals were kept in the animal house (URBE, Facultad de Medicina, UdelaR, Uruguay) with water and food supplied ad libitum. Mouse handling and experiments were carried out in accordance with strict guidelines from the National Committee on Animal Research (CNEA, Uruguay). All procedures involving animals were approved by the Universidad de la República’s Committee on Animal Research (CHEA Protocol Number: 070153-000180-16). BALB/c mice were orally infected with 10 F. hepatica metacercariae per animal. After 1 week post-infection (wpi), mice were intragastrically inoculated with compound 187 (100 mg/kg) or TCZ (100 mg/kg). At 3 wpi mice were bled and sacrificed. Peritoneal exudate cells, spleens, and livers were removed and analyzed. In order to evaluate the severity of the infection, a disease severity score was developed (Table 3S Supporting Information)[57], which was applied in blinded experiments. Alanine aminotransferase (ALT) activity in sera was determined using a commercial kit (Spinreact, Spain) according to the manufacturers’ instructions. PECs from infected and non-infected mice were washed twice with PBS containing 2% FBS and 0.1% sodium azide.
# [4] = Figure 1, ranges of inhibitory activity, read-out: IC50 range
# [5] = recombinant FhTIM, 1 h incubation with compound at 37 °C, read-out: IC50
# Chain of Fasciola hepatica TIM (FhTIM) (S4UI50 entry or part of it): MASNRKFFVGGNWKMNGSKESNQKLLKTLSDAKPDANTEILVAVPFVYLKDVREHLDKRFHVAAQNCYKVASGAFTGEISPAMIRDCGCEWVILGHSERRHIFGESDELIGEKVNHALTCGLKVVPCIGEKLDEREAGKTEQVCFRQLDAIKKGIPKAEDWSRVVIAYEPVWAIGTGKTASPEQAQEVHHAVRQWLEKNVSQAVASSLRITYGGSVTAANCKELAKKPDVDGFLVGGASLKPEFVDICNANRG
Structure (SMILES),Toxicity mammalian cells [1],"IC50 [2, 4] [µM]","IC50 [2, 5] [µM]","protection of mice from F. hepatica infection (clinical signs, Clinic Score) [3]",transaminase profile at the end of the experiment [3],toxicity to mammalian cells in words ([1]; herein),"IC50 ([2]; Table 1S, screening of 340 compounds in FhTIM, table head prints no unit, µM per b8/b9, read-out: IC50) [µM]"
"CSc1nc2cc(Cl)c(Oc3cccc(Cl)c3Cl)cc2[nH]1 [Compound 1278, triclabendazole, reference compound]","NT (when the IC50 vs. the parasite was at least 10 times less than the IC50 vs. the mammalian cells, we considered these compounds as non-toxic (NT))",< 50,7 ± 1,protected mice from the infection,according to a healthy liver,,
Cc1ccc(-c2nsc(S(=O)(=O)c3ccc(C)cc3)n2)cc1 [Compound 187],"NT (when the IC50 vs. the parasite was at least 10 times less than the IC50 vs. the mammalian cells, we considered these compounds as non-toxic (NT))",< 50,4 ± 0.2,protected mice from the infection,according to a healthy liver,non-toxic,< 25
